Laboratory results taken from PubChem BioAssay (NCI).
“And” between values parts separate entries of the source, which are not always exact repeats. Equal entries are not always repeated.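 All cell lines were grown in 96-well plates and treated with compound for 48 hours. The concentration for 50% growth inhibition is given as GI50. At the TGI there is no net growth.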

What was measured:
Test in all cases: NCI tumour cell line growth inhibition, 48 h
M19-MEL melanoma = test system: M19-MEL melanoma
DLD-1 colon = test system: DLD-1 colon
P388/ADR leukemia = test system: P388/ADR leukemia
XF 498 CNS = test system: XF 498 CNS
DMS 273 small cell lung = test system: DMS 273 small cell lung
SN12K1 renal = test system: SN12K1 renal
DMS 114 small cell lung = test system: DMS 114 small cell lung
P388 leukemia = test system: P388 leukemia
HOP-18 NSCLC = test system: HOP-18 NSCLC
LXFL 529 NSCLC = test system: LXFL 529 NSCLC
RXF-631 renal = test system: RXF-631 renal

## CN(CCO)/N=N/c1[nH]ncc1C(N)=O
M19-MEL melanoma
  TGI: > 100 µM
DLD-1 colon
  TGI: > 100 µM
P388/ADR leukemia
  TGI: > 100 µM
XF 498 CNS
  TGI: > 100 µM
DMS 273 small cell lung
  TGI: > 100 µM
SN12K1 renal
  TGI: > 100 µM
DMS 114 small cell lung
  TGI: > 100 µM
P388 leukemia
  TGI: > 100 µM
HOP-18 NSCLC
  TGI: > 100 µM

## c1ccc(CCn2cncn2)cc1
M19-MEL melanoma
  TGI: > 100 µM
DLD-1 colon
  TGI: > 100 µM
DMS 273 small cell lung
  TGI: > 100 µM
DMS 114 small cell lung
  TGI: > 100 µM
LXFL 529 NSCLC
  TGI: > 100 µM
RXF-631 renal
  TGI: > 100 µM

## c1ccc(C2[C@@H]3CCCc4ccccc4C3=NN2c2ccccc2)cc1 (some centres not stated)
M19-MEL melanoma
  TGI: > 100 µM
DLD-1 colon
  TGI: > 100 µM
XF 498 CNS
  TGI: > 100 µM
DMS 114 small cell lung
  TGI: > 100 µM
LXFL 529 NSCLC
  TGI: > 100 µM

## CC(=O)C1(O)Cc2c(O)c3c(c(O)c2C(OC2CC(N)C(O)C(C)O2)C1)C(=O)c1ccccc1C3=O (configuration not stated)
M19-MEL melanoma
  TGI: 0.121 µM
DLD-1 colon
  TGI: 0.498 µM
XF 498 CNS
  TGI: 0.181 µM
DMS 273 small cell lung
  TGI: < 0.0108 µM
LXFL 529 NSCLC
  TGI: 0.25 µM
HOP-18 NSCLC
  TGI: 0.0869 µM

## CCCCCCCCCCSCC(CO)NC(=O)/C=C/c1c(C)[nH]c(=O)[nH]c1=O (configuration not stated)
M19-MEL melanoma
  TGI: 14.8 µM and > 39.5 µM
DLD-1 colon
  TGI: > 50 µM
P388/ADR leukemia
  TGI: > 50 µM
XF 498 CNS
  TGI: 2.19 µM and 3.61 µM
DMS 273 small cell lung
  GI50: 1.97 µM and 4.58 µM
  TGI: > 50 µM
SN12K1 renal
  TGI: > 35.6 µM and 19.9 µM
DMS 114 small cell lung
  TGI: 5.93 µM and 4.33 µM
P388 leukemia
  TGI: 7.15 µM and 6.31 µM
HOP-18 NSCLC
  GI50: 2.91 µM and > 26.8 µM
  TGI: > 50 µM

## COc1ccc(C2C(Cl)C(=O)N2NC(=O)Cc2ccccc2)cc1OC (configuration not stated)
M19-MEL melanoma
  TGI: > 100 µM
DLD-1 colon
  TGI: > 100 µM
XF 498 CNS
  TGI: > 100 µM
DMS 273 small cell lung
  TGI: > 100 µM
DMS 114 small cell lung
  TGI: > 100 µM
HOP-18 NSCLC
  TGI: > 100 µM

## CCN(CC)CCNc1ccc2ncn3c4cc(=O)ccc4c(O)c1c23
M19-MEL melanoma
  TGI: 16.5 µM
DLD-1 colon
  TGI: 17 µM
XF 498 CNS
  TGI: 12.8 µM
DMS 273 small cell lung
  TGI: 13.2 µM
DMS 114 small cell lung
  TGI: 18.1 µM
LXFL 529 NSCLC
  TGI: 20.5 µM
RXF-631 renal
  TGI: 12.5 µM

## O=C1C[C@H](c2ccc(O)c(O)c2)Oc2cc(O)cc(O)c21
M19-MEL melanoma
  TGI: > 100 µM
DLD-1 colon
  TGI: > 100 µM
DMS 273 small cell lung
  TGI: > 100 µM
DMS 114 small cell lung
  TGI: > 100 µM
LXFL 529 NSCLC
  TGI: > 100 µM
HOP-18 NSCLC
  TGI: > 100 µM
RXF-631 renal
  TGI: > 100 µM

## CC(=O)n1ccc2c(Cl)ncnc21
M19-MEL melanoma
  TGI: > 100 µM
DLD-1 colon
  TGI: > 100 µM
DMS 273 small cell lung
  TGI: > 100 µM
DMS 114 small cell lung
  TGI: > 100 µM
LXFL 529 NSCLC
  TGI: > 100 µM
HOP-18 NSCLC
  TGI: > 100 µM
RXF-631 renal
  TGI: > 100 µM

## COC(=O)C1C2CC3C(OC(=O)C31)C2OC(=O)[C@](OC)(c1ccccc1)C(F)(F)F (some centres not stated)
M19-MEL melanoma
  TGI: > 100 µM
DLD-1 colon
  TGI: > 100 µM
XF 498 CNS
  TGI: > 100 µM
DMS 273 small cell lung
  TGI: > 100 µM
DMS 114 small cell lung
  TGI: > 100 µM
LXFL 529 NSCLC
  TGI: > 100 µM
RXF-631 renal
  TGI: > 100 µM

## O=C1NC2(C=Cc3c(ccc4ccccc34)O2)Oc2ccccc21 (configuration not stated)
M19-MEL melanoma
  TGI: > 100 µM
XF 498 CNS
  TGI: > 100 µM
DMS 273 small cell lung
  TGI: 76.1 µM
DMS 114 small cell lung
  TGI: 51 µM
LXFL 529 NSCLC
  TGI: 56.4 µM

## CC(C)(C)OC(=O)N1N=NC2C3OC(CC3=O)C21 (configuration not stated)
DLD-1 colon
  TGI: > 100 µM
DMS 273 small cell lung
  TGI: > 100 µM
DMS 114 small cell lung
  TGI: > 100 µM
LXFL 529 NSCLC
  TGI: > 100 µM
HOP-18 NSCLC
  TGI: > 100 µM
RXF-631 renal
  TGI: > 100 µM
